Results taken from patent US20180000085A1, “USE OF PICOLINAMIDE COMPOUNDS WITH FUNGICIDAL ACTIVITY” (DOW AGROSCIENCES LLC, priority 2014, published 2018).

Tests used:
Format in all cases: in vivo
Puccinia triticina = assay: Wheat brown rust (PUCCRT) disease control on wheat seedlings; parameters: key to PUCCRT 3DC, HV activity at 100 ppm (% control rating) / PUCCRT disease control, 3DC / PUCCRT 1DP disease control rating, HV activity / PUCCRT 3DC disease control rating, HV activity / PUCCRT 3DC, LV activity at 125.1 g/H (% Control rating) / PUCCRT 1DP, LV activity at 125.1 g/H (% Control rating) / PUCCRT 3DC disease control rating, LV activity at 125.1 g/H / PUCCRT 1DP disease control rating, LV activity at 125.1 g/H / PUCCRT 3DC disease control rating, HV activity at 100 ppm / PUCCRT 1DP disease control rating, HV activity at 100 ppm / HV activity at 100 ppm PUCCRT 3DC (disease control rating) / LV activity at 125.1 g/H PUCCRT 1DP (disease control rating) / LV activity at 125.1 g/H PUCCRT 3DC (disease control rating): A: > 80; B: ≤ 80; C: Not Tested; D: No Activity Observed in the Reported Assay; conditions: for PUCCRT 1DP, LV activity at 125.1 g/H (% Control rating) / PUCCRT 3DC, LV activity at 125.1 g/H (% Control rating): low volume application
Cercospora beticola = assay: Leaf spot of sugar beets (CERCBE) disease control; conditions: 100 ppm; 1 Day Protectant; sugar beet
Description: All fungicides were evaluated using the aforementioned method for their activity vs. all target diseases, unless stated otherwise. Wheat leaf blotch and brown rust activity were also evaluated using track spray applications, in which case the fungicides were formulated as EC formulations, containing 0.1% Trycol 5941 in the spray solutions. Wheat plants (variety Yuma) were grown from seed in a greenhouse in 50% mineral soil/50% soil-less Metro mix until the first leaf was fully emerged, with 7-10 seedlings per pot. These plants were inoculated with an aqueous spore suspension of Zymoseptoria tritici either prior to or after fungicide treatments. After inoculation the plants were kept in 100% relative humidity (one day in a dark dew chamber followed by two to three days in a lighted dew chamber at 20° C.) to permit spores to germinate and infect the leaf. The plants were then transferred to a greenhouse set at 20° C. for disease to develop. When disease symptoms were fully expressed on the 1st leaves of untreated plants, infection levels were assessed on a scale of 0 to 100 percent disease severity. Percent disease control was calculated using the ratio of disease severity on treated plants relative to untreated plants. Example F: Evaluation of Fungicidal Activity: Leaf Spot of Sugar Beets (Cercospora beticola; Bayer Code CERCBE) Sugar beet plants (variety HH88) were grown in soil-less Metro mix and trimmed regularly to maintain a uniform plant size prior to test. Plants were inoculated with a spore suspension 24 hr after fungicide treatments. Inoculated plants were kept in a dew chamber at 22° C. for 48 hr then incubated in a greenhouse set at 24° C. under a clear plastic hood with bottom ventilation until disease symptoms were fully expressed. Fungicide formulation, application and disease assessment on the sprayed leaves followed the procedures as described in the Example A.

Phakopsora pachyrhizi = assay: Asian soybean rust (PHAKPA) disease control; parameters: key: A: > 80; B: ≤ 80; C: Not Tested; D: No Activity Observed in the Reported Assay; conditions: 25 ppm; for PHAKPA disease control, 1DP: 1 Day Protectant; for PHAKPA disease control, 3DC: 3 Day Curative

SMILES | PUCCRT 1DP disease control rating, HV activity (Puccinia triticina; HV application at 100 ppm, 1 Day Protectant, wheat brown rust) | PUCCRT 3DC disease control rating, HV activity (Puccinia triticina; HV application at 100 ppm, 3 Day Curative, wheat brown rust) | PUCCRT 1DP disease control rating, LV activity (Puccinia triticina; Low volume application at 125.1 g/H, 1 Day Protectant, wheat brown rust) | PUCCRT 3DC disease control rating, LV activity (Puccinia triticina; Low volume application at 125.1 g/H, 3 Day Curative, wheat brown rust) | CERCBE disease control, 1DP (Cercospora beticola) | PHAKPA disease control, 1DP (Phakopsora pachyrhizi) | PHAKPA disease control, 3DC (Phakopsora pachyrhizi) | PUCCRT 1DP, LV activity at 125.1 g/H (% Control rating) (Puccinia triticina; 1 Day Protectant) | PUCCRT 3DC, LV activity at 125.1 g/H (% Control rating) (Puccinia triticina; 3 Day Curative)
CCCOC(CC)C(Oc1ccccc1)C(C)OC(=O)C(C)NC(=O)c1nccc(OC)c1OCOC(C)=O (centres unmarked) [Cmpd 446] | A (> 80) | A (> 80) | A (> 80) | A (> 80) | B (≤ 80) | A (> 80) | B (≤ 80) | – | –
COc1ccnc(C(=O)N[C@@H](C)C(=O)O[C@@H](C)[C@H](Oc2ccccc2)C(C)C)c1OCOC(C)=O [Cmpd 475] | – | – | – | – | A (> 80) | A (> 80) | A (> 80) | A (> 80) | A (> 80)
CC[C@@H](CCOC)[C@@H](Oc1ccccc1)[C@H](C)OC(=O)[C@H](C)NC(=O)c1nccc(OC)c1OCOC(C)=O [Cmpd 476] | – | – | – | – | B (≤ 80) | A (> 80) | B (≤ 80) | A (> 80) | A (> 80)
CCC(CC)[C@@H](Oc1ccccc1)[C@H](C)OC(=O)[C@H](C)NC(=O)c1nccc(OC)c1OCOC(C)=O [Cmpd 477] | – | – | – | – | A (> 80) | A (> 80) | B (≤ 80) | A (> 80) | A (> 80)
COc1ccnc(C(=O)N[C@@H](C)C(=O)O[C@@H](C)[C@H](Oc2ccccc2)C(C)C)c1OC(C)=O [Cmpd 478] | – | – | – | – | B (≤ 80) | A (> 80) | B (≤ 80) | A (> 80) | A (> 80)
CCC(CC)[C@@H](Oc1ccccc1)[C@H](C)OC(=O)[C@H](C)NC(=O)c1nccc(OC)c1OC(C)=O [Cmpd 479] | – | – | – | – | A (> 80) | A (> 80) | B (≤ 80) | A (> 80) | A (> 80)
CC[C@@H](CCOC)[C@@H](Oc1ccccc1)[C@H](C)OC(=O)[C@H](C)NC(=O)c1nccc(OC)c1OC(C)=O [Cmpd 482] | – | – | – | – | A (> 80) | – | – | A (> 80) | A (> 80)
COc1ccnc(C(=O)N[C@@H](C)C(=O)O[C@@H](C)[C@H](Oc2ccccc2)c2ccccc2)c1OCOC(C)=O [Cmpd 500] | – | – | – | – | A (> 80) | B (≤ 80) | B (≤ 80) | A (> 80) | A (> 80)
COc1ccnc(C(=O)N[C@@H](C)C(=O)O[C@H](C)[C@@H](Oc2ccccc2)c2ccccc2)c1OCOC(C)=O [Cmpd 547] | – | – | – | – | B (≤ 80) | B (≤ 80) | D | A (> 80) | A (> 80)
COc1ccnc(C(=O)N[C@H](C)C(=O)O[C@H](C)[C@@H](Oc2ccccc2)C(C)C)c1OCOC(C)=O [Cmpd 548] | – | – | – | – | B (≤ 80) | B (≤ 80) | D | D | D
COc1ccnc(C(=O)N[C@H](C)C(=O)O[C@H](C)[C@@H](Oc2ccccc2)c2ccccc2)c1OCOC(C)=O [Cmpd 549] | – | – | – | – | B (≤ 80) | D | D | D | D
COc1ccnc(C(=O)N[C@@H](C)C(=O)O[C@@H](C)[C@@H](Oc2ccccc2)C(C)C)c1OCOC(C)=O [Cmpd 552] | – | – | – | – | B (≤ 80) | A (> 80) | B (≤ 80) | A (> 80) | A (> 80)
COc1ccnc(C(=O)N[C@@H](C)C(=O)O[C@@H](C)[C@H](Oc2ccccc2)C2CCCC2)c1OCOC(C)=O [Cmpd 556] | – | – | – | – | A (> 80) | A (> 80) | B (≤ 80) | A (> 80) | A (> 80)
COc1ccnc(C(=O)N[C@@H](C)C(=O)O[C@@H](C)[C@@H](CC(C)C)Oc2ccccc2)c1OCOC(C)=O [Cmpd 557] | – | – | – | – | B (≤ 80) | A (> 80) | B (≤ 80) | A (> 80) | A (> 80)
COc1ccnc(C(=O)N[C@H](C)C(=O)O[C@@H](C)[C@H](Oc2ccccc2)C(C)C)c1OCOC(C)=O [Cmpd 558] | – | – | – | – | B (≤ 80) | B (≤ 80) | D | D | B (≤ 80)
COc1ccnc(C(=O)N[C@H](C)C(=O)O[C@@H](C)[C@@H](Oc2ccccc2)C(C)C)c1OCOC(C)=O [Cmpd 559] | – | – | – | – | B (≤ 80) | B (≤ 80) | B (≤ 80) | D | D
COc1ccnc(C(=O)N[C@H](C)C(=O)O[C@H](C)[C@H](Oc2ccccc2)C(C)C)c1OCOC(C)=O [Cmpd 560] | – | – | – | – | B (≤ 80) | B (≤ 80) | D | D | D
COc1ccnc(C(=O)N[C@@H](C)C(=O)O[C@@H](C)[C@H](Oc2cccc(Cl)c2)C(C)C)c1OC(C)=O [Cmpd 566] | – | – | – | – | B (≤ 80) | A (> 80) | B (≤ 80) | A (> 80) | A (> 80)
COc1ccnc(C(=O)N[C@@H](C)C(=O)O[C@@H](C)[C@H](Oc2cccc(F)c2)c2ccccc2)c1OCOC(C)=O [Cmpd 574] | – | – | – | – | A (> 80) | A (> 80) | B (≤ 80) | A (> 80) | A (> 80)
CCC(CC)[C@@H](Oc1ccc(F)cc1)[C@H](C)OC(=O)[C@H](C)NC(=O)c1nccc(OC)c1OCOC(C)=O [Cmpd 587] | – | – | – | – | A (> 80) | A (> 80) | B (≤ 80) | A (> 80) | A (> 80)
COc1ccnc(C(=O)N[C@@H](C)C(=O)O[C@@H](C)[C@H](Oc2cc(F)cc(Cl)c2)C(C)C)c1OCOC(C)=O [Cmpd 617] | – | – | – | – | B (≤ 80) | A (> 80) | B (≤ 80) | A (> 80) | A (> 80)
COc1ccnc(C(=O)N[C@@H](C)C(=O)O[C@@H](C)[C@H](Oc2cccc(Cl)c2)c2ccccc2)c1OCOC(C)=O [Cmpd 637] | – | – | – | – | B (≤ 80) | A (> 80) | B (≤ 80) | A (> 80) | B (≤ 80)
